Columns and labels:
NTCP = biological target: T1, NTCP (Homo sapiens, UniProt Q14973); assay: HepG2-NTCP preS1 Binding Competition Assay; conditions: HepG2-NTCP cells pre-treated 2 hours, FITC-labeled myristoylated preS1 peptide co-incubated 30 minutes, cell-surface fluorescence; read-out: Cellular EC50
T1 construct: expressed in transfected cells; host or cells: HepG2-NTCP (A3 clone, kept under puromycin)
T1 sequence (Q14973 1-349): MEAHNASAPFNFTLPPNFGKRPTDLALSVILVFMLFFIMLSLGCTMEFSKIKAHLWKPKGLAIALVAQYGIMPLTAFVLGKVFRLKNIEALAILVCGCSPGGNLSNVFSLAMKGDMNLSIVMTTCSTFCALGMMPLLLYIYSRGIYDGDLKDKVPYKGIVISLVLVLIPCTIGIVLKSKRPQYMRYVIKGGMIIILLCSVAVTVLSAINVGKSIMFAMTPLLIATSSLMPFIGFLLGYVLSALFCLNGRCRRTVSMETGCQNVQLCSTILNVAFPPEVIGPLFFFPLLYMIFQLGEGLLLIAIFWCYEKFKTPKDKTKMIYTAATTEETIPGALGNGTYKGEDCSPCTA
Method: Myristoylated preS1 peptide (2-48 aa) conjugated to a C-terminal FITC tag was synthesized to evaluate preS1 binding to NTCP-expressing cells. HepG2-NTCP cells seeded in 384-wells were pre-treated with compounds for 2 hours prior to the addition of FITC-labeled preS1 peptide. After co-incubation for 30 minutes, unbound FITC-preS1 peptide was washed twice with PBS, and the fluorescence of preS1-FITC bound to cell surface was detected by Envision plate reader. EC50 ranges are as follows: A<0.1 μM; B 0.1-1 μM; C>1 μM. A dash (-) indicates the compound was not tested.

HBV = HBV Infection in HepG2-NTCP Cells (HBeAg AlphaLISA); type: cell-based; conditions: Hepatitis B virus, 192 h, read-out: Cellular EC50 (μM)
Method: HepG2-NTCP A3 cells were maintained in DMEM media supplemented with GlutaMAX™, 10% fetal bovine serum, 1% penicillin/streptomycin, and 5 μg/mL puromycin at 37° C. in a humidified atmosphere with 5% CO2 in a collagen-coated tissue culture flask.
HepG2-NTCP cells were seeded in 384 well plate containing 16,000 cells/well two days prior to the infection. On the day of infection, compounds were 3-fold serially diluted in DMSO and pre-incubated with HepG2-NTCP cells for two hours before purified HBV addition. HBV infection was carried out at 2000 GE/cell with 4% PEG, and the final concentration of DMSO is 0.5%. On day one post infection, HBV-containing media was aspirated, cells were washed once with PBS and then maintained in 2.5% DMSO containing media for the remainder of the assay.
Supernatants from infected HepG2-NTCP cells were collected at day 8 post infection, and the amount of viral antigen HBeAg was measured by HBeAg AlphaLISA detection kit (PerkinElmer) following the manufacturer's recommended protocol. Irrespective of readout, compound concentrations that reduce viral product accumulation in supernatants by 50% relative to DMSO controls (EC50) are reported. EC50 ranges are as follows: A<0.1 μM; B 0.1-1 μM; C>1 μM. A dash (-) indicates the compound was not tested.

## CC(C)COC(=O)N[C@H](CCc1cc2c(cc1Cl)N(c1ccccc1)C[C@@H](C1CCCCC1)N(C)S2(=O)=O)C(=O)O [Example 15]
NTCP
  EC50: 0.1 to 1 µM
HBV
  EC50: < 0.1 µM

## CCCCCOC(=O)N[C@@H](CCc1cc2c(cc1Cl)N(c1ccccc1)C[C@@H](C1CCCCC1)N(C)S2(=O)=O)C(=O)O [Example 16]
NTCP
  EC50: 0.1 to 1 µM
HBV
  EC50: 0.1 to 1 µM

## CN1[C@H](C2CCCCC2)CN(c2ccccc2)c2cc(Cl)c(CC[C@H](NC(=O)OCc3ccccc3)C(=O)O)cc2S1(=O)=O [Example 22]
NTCP
  EC50: 0.1 to 1 µM
HBV
  EC50: 0.1 to 1 µM

## CC(C)CS(=O)(=O)N[C@H](CCc1cc2c(cc1Cl)N(c1ccccc1)C[C@@H](C1CCCCC1)N(C)S2(=O)=O)C(=O)O [Example 29]
NTCP
  EC50: < 0.1 µM
HBV
  EC50: 0.1 to 1 µM

## CCCCN(C)C(=O)C(=O)N[C@@H](CCc1cc2c(cc1Cl)N(c1ccccc1)C[C@@H](C1CCCCC1)N(C)S2(=O)=O)C(=O)O [Example 32, (S)-2-(2-(butyl(methyl)amino)-2-oxoacetamido)-4-((R)-7-chloro-3-cyclohexyl-2-methyl-1,1-dioxido-5-phenyl-2,3,4,5-tetrahydrobenzo[f][1,2,5]thiadiazepin-8-yl)butanoic acid]
NTCP
  EC50: < 0.1 µM
HBV
  EC50: < 0.1 µM

## CCCCN(C)C(=O)C(=O)N[C@H](CCc1cc2c(cc1Cl)N(c1ccccc1)C[C@@H](C1CCCCC1)N(C)S2(=O)=O)C(=O)O [Example 33]
NTCP
  EC50: 0.1 to 1 µM
HBV
  EC50: 0.1 to 1 µM

## CCCCNC(=O)C(=O)N[C@@H](CCc1cc2c(cc1Cl)N(c1ccccc1)C[C@@H](C1CCCCC1)N(C)S2(=O)=O)C(=O)O [Example 34]
NTCP
  EC50: < 0.1 µM
HBV
  EC50: < 0.1 µM

## CNc1cc2c(cc1C(=O)N[C@H](C(=O)O)c1ccc(C(F)(F)F)cc1)S(=O)(=O)N(C)[C@H](C1CCCCC1)CN2c1ccccc1 [Example 39, (S)-2-((R)-3-cyclohexyl-2-methyl-7-(methylamino)-1,1-dioxido-5-phenyl-2,3,4,5-tetrahydrobenzo[f][1,2,5]thiadiazepine-8-carboxamido)-2-(4-(trifluoromethyl)phenyl)acetic acid]
NTCP
  EC50: < 0.1 µM
HBV
  EC50: < 0.1 µM

## CNc1cc2c(cc1C(=O)N[C@H](C(=O)O)c1ccsc1)S(=O)(=O)N(C)[C@H](C1CCCCC1)CN2c1ccccc1 [Example 40]
NTCP
  EC50: < 0.1 µM
HBV
  EC50: 0.1 to 1 µM

## CNc1cc2c(cc1C(=O)N[C@H](C(=O)O)C1CCCCC1)S(=O)(=O)N(C)[C@H](C1CCCCC1)CN2c1ccccc1 [Example 41]
NTCP
  EC50: < 0.1 µM
HBV
  EC50: < 0.1 µM

## CNc1cc2c(cc1C(=O)N[C@H](C(=O)O)c1cccc(Cl)c1)S(=O)(=O)N(C)[C@H](C1CCCCC1)CN2c1ccccc1 [Example 45]
NTCP
  EC50: < 0.1 µM
HBV
  EC50: < 0.1 µM
